Measurements reported in PubChem BioAssay (NCI).
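All cell lines were grown in 96-well plates and treated with compound for 48 hours. GI50 is the concentration that inhibits growth by half. TGI: total growth inhibition.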

What was measured:
Test in all cases: NCI tumour cell line growth inhibition, 48 h
[1] = tested on: K-562 leukemia
[2] = tested on: KM12 colon
[3] = tested on: MCF7 breast
[4] = tested on: NCI-H226 lung
[5] = tested on: OVCAR-5 ovarian
[6] = tested on: RPMI-8226 leukemia
[7] = tested on: SF-268 CNS
[8] = tested on: SK-MEL-2 melanoma
[9] = tested on: SN12C renal
[10] = tested on: UACC-257 melanoma

| SMILES | GI50 [1] [µM] | TGI [1] [µM] | GI50 [2] [µM] | TGI [2] [µM] | GI50 [3] [nM] | TGI [3] [µM] | GI50 [4] [nM] | TGI [4] [µM] | GI50 [5] [µM] | TGI [5] [µM] | GI50 [6] [nM] | TGI [6] [µM] | GI50 [7] [µM] | TGI [7] [µM] | GI50 [8] [µM] | TGI [8] [µM] | GI50 [9] [µM] | TGI [9] [µM] | GI50 [10] [µM] | TGI [10] [µM] |
| --- | --- | --- | --- | --- | --- | --- | --- | --- | --- | --- | --- | --- | --- | --- | --- | --- | --- | --- | --- | --- |
| COc1ccc(-c2cc(=O)c3c(OC)c4ccoc4c(/C=C/C=O)c3o2)cc1 | 2.8 | > 100 | 12.3 | 25.7 | 1630 | > 100 | 2930 | 8.89 | 11.7 | 46.8 | 1370 | 5.29 | 4.38 | 87.2 | 9.06 | 84.6 | 2.32 | 59.5 | 3.63 | 14.2 |
| COc1cc(-c2oc3c(OC)c(O)c(OC)c(O)c3c(=O)c2OC)cc(OC)c1OC | – | > 100 | – | > 100 | – | > 100 | – | > 100 | – | > 100 | – | > 100 | – | 71.5 | – | > 100 | – | > 100 | – | > 100 |
| CCN1CCN(Cc2ccc(Nc3ncc(F)c(-c4cc(F)c5nc(C)n(C(C)C)c5c4)n3)nc2)CC1 | 5.85 | 21 | 0.56 | 9.29 | 24.1 | 10.4 | 109 | 25.2 | 8.53 | 50 | 6680 | 19.1 | 5.32 | 13.9 | > 50 | > 50 | 5.55 | 12.6 | 5.45 | 7.97 |
| NS(=O)(=O)c1ccc(N=Nc2c(O)[nH]c3ccc(C(=O)NCCCn4ccnc4)cc23)cc1 | > 25 | > 25 | > 25 | > 25 | > 25000 | > 25 | > 25000 | > 25 | > 25 | > 25 | > 25000 | > 25 | > 25 | > 25 | > 25 | > 25 | > 25 | > 25 | > 25 | > 25 |
| Cc1nc2ccc(-n3ncc(C(=O)c4cc5ccccc5[nH]4)c3N)cc2[nH]1 | 3.07 | > 100 | 3.53 | 43.1 | 4520 | > 100 | 10500 | 49.9 | 16 | > 100 | 8100 | 54.7 | 6.63 | > 100 | 25.9 | 88.5 | 12.7 | > 100 | 26.6 | > 100 |
| CSC1=CC(=O)c2ccccc2C1=O | – | – | 6.75 | 22.5 | 1720 | 3.65 | 1680 | 3.82 | 17.4 | 34.2 | 2610 | 7.96 | 8.85 | 22.1 | 11.6 | 33.7 | 5.31 | 19.4 | 2.04 | 4.36 |
| CS(=O)(=O)Nc1cc(-c2ccc3ncc(C#N)c(Nc4ccc(F)c(Cl)c4)c3c2)cnc1Cl | 0.201 | > 100 | 0.276 | 1.91 | 94.6 | > 100 | 258 | 2.16 | 0.308 | 2.29 | 83.3 | 0.469 | 0.133 | – | 0.133 | 0.53 | 0.133 | > 100 | 0.194 | 2.14 |
